In brackets after ≈: the same amount, converted by molar mass.
Key:
Pimephales promelas = conditions: chronic/long-term; duration: 32 days; growth
Cyprinus carpio = conditions: acute; duration: 96 hours; mortality
Anas platyrhynchos = conditions: reproductive
Apis mellifera = conditions: acute, mortality
Colinus virginianus = conditions: acute, oral, mortality
Gammaridae = conditions: chronic/long-term; duration: 28 days

Cn1cc(C(=O)Nc2cccc3c2[C@@H]2CC[C@H]3C2=C(Cl)Cl)c(C(F)F)n1 [Benzovindiflupyr]
NOEC (Pimephales promelas): 0.00095 mg/L | LC50 (Cyprinus carpio): 0.0035 mg/L (≈ 0.00879 µM) | LC50 (Neomysis kadiakensis; acute, duration: 96 hours, mortality): 0.056 mg/L (≈ 0.141 µM) | NOEC (Neomysis kadiakensis; chronic/long-term, duration: 28 days, reproduction): 0.0074 mg/L | LC50 (Pontoscolex corethrurus; acute, duration: 14 days, mortality): 406 mg/kg | NOEC (Pontoscolex corethrurus; chronic/long-term, duration: 8 weeks): 7.81 mg/kg | NOEC (Anas platyrhynchos): 25 mg/kg-day | LD50 (Apis mellifera; dermal): > 100 µg/piece | LD50 (Apis mellifera; oral, unspecified): > 109 µg/piece | LC50 (Colinus virginianus; diet): > 1170 mg/kg-day | LD50 (Colinus virginianus): 1320 mg/kg | LD50 (Rattus norvegicus; acute, mortality): 55 mg/kg | NOAEL (Rattus norvegicus; acute, neurology): 10 mg/kg-day | NOAEL (Rattus norvegicus; chronic): 6.8 mg/kg-day | NOAEL (Rattus norvegicus; chronic, duration: 2 years, histopathology: nonneoplastic): 4.88 mg/kg-day | NOAEL (Rattus norvegicus; reproduction developmental, M/F, reproduction): 6.8 mg/kg-day | NOAEL (Rattus norvegicus; subchronic, duration: 90 days, oral, organ weight): 7.6 mg/kg-day | NOEC (Gammaridae): 4.1 mg/kg
